From patent publication US20110201622A1, “Solid Forms Comprising A Cyclopropyl Amide Derivative” (priority 2010, published 2011)

Assays:
[1] = Dynamic vapor sorption (DVS) analysis; format: physicochemical; conditions: about ambient temperature, about 0% RH to about 90% RH
Procedure: Solid material obtained according to Example 5 was analyzed by DVS techniques. Isothermic DVS analysis was performed at about ambient temperature by increasing a sample of Form I of Compound I from about 0% RH to about 90% RH.
DVS analysis is performed on samples prepared according to standard methods using standard equipment, e.g., a DVS instrument commercially available from Surface Measurement Systems, Ltd.™(Alperton, London, UK). Samples maintained at ambient temperature are cycled between about 0% RH and about 90% RH. Percent changes in mass are recorded, which are indicative of moisture sorption and desorption.

[2] = Thermal gravimetric analysis (TGA); format: physicochemical
Procedure: Solid material obtained according to the Example 5 was analyzed by thermal techniques.

## C[C@@H]1CN(C2CCC2)CCN1C(=O)[C@H]1C[C@@H]1c1ccc(C(N)=O)cc1 [Form I of Compound I, 4-{(1S, 2S)-2-[((R)-4-cyclobutyl-2-methylpiperazin-1-yl)carbonyl]-cyclopropyl}-benzamide]
[1]
  hygroscopicity (DVS analysis): substantially nonhygroscopic
[2]; upon heating from about 20° C. to about 100° C.
  mass loss (TGA): about 0.25%
[2]; upon heating from about 100° C. to about 160° C.
  further mass loss (TGA): about 0.25%
